Where two headings read alike, the source gives them in different places. Numbered stars: 1 amine (or outer) side, 2 acyl side, 3 side chain; on linkers, the order of the positions; unused ones are H or OH. Bridge positions count the residues as written; N and C are the ends. Square brackets hold non-standard residues; d marks the D form. Peptide text beside a SMILES is read from it. I, II: the chains in the order shown. Actinocin(9to1) = Cc1c2oc3c(C)ccc(C(=O)[*:1])c3nc-2c(C(=O)[*:2])c(N)c1=O; NMeV = CN[C@H](C(=O)O)C(C)C; Sar = CNCC(=O)O
Legend:
Experiment in all cases: Secondary dose-response HTS, Cell Titer Glo; call rule not given here
Type in all cases: cell-based, human
U937 = test system: U937
ML2 = settings: ML-2
MOLM-13 = settings: MOLM-13
MV4-11 = settings: MV4-11; for EC50: Homo sapiens
CMK = settings: CMK
M07e = settings: for EC50: Homo sapiens, M-07e
CHRF288-11 = test system: CHRF288-11
CMS = test system: CMS
[1] = secondary high-throughput screen, U937
[2] = secondary high-throughput screen
[3] = secondary high-throughput screen, M07e
[4] = secondary high-throughput screen, CHRF288-11
[5] = secondary high-throughput screen, CMS
[6] = secondary high-throughput screen, read-out: average effective concentration, CMK
[7] = secondary high-throughput screen, […]
[8] = Homo sapiens, U-937, secondary high-throughput screen, U937, read-out: average effective concentration, U937
[9] = Homo sapiens, secondary high-throughput screen, read-out: average effective concentration, ML-2
[10] = Homo sapiens, secondary high-throughput screen, read-out: average effective concentration, MOLM-13
[11] = secondary high-throughput screen, read-out: average effective concentration, MV4-11
[12] = Homo sapiens, secondary high-throughput screen, read-out: average effective concentration, CMK
[13] = secondary high-throughput screen, M07e, read-out: average effective concentration, M07e
[14] = Homo sapiens, HTS, secondary high-throughput screen, CHRF288-11, read-out: average effective concentration, CHRF288-11
[15] = Homo sapiens, HTS, secondary high-throughput screen, CMS, read-out: average effective concentration, CMS
[16] = Homo sapiens, read-out: average effective concentration, CMK
[17] = Homo sapiens, HTS, read-out: average effective concentration, CMS

Row | Compound | average effective concentration, U937 (U937; [1]) | average effective concentration, MOLM-13 (MOLM-13; [2]) | average effective concentration, MV4-11 (MV4-11; [2]) | average effective concentration, CMK (CMK; [2]) | average effective concentration, M07e (M07e; [3]) | average effective concentration, CHRF288-11 (CHRF288-11; [4]) | average effective concentration, CMS (CMS; [5]) | average effective concentration, ML-2 (ML2; [2]) | EC50 (U937; [8]) [µM] | EC50 (ML2; [9]) [µM] | EC50 (MOLM-13; [10]) [µM] | EC50 (MV4-11; [11]) [µM] | EC50 (M07e; [13]) [µM] | EC50 (CHRF288-11; [14]) [µM] | further results
1 | C[n+]1c2cc(N)ccc2cc2ccc(N)cc21 | Inactive | Inactive | Inactive | Inactive | Inactive | Inactive | Inactive |  |  |  |  |  |  |  | EC50 (ML2; secondary high-throughput screen, read-out: average effective concentration, ML-2): 7.7 µM
2 | NC(=O)C1CCCc2c1[nH]c1ccc(Cl)cc21 (stereo not drawn) | Inactive | Inactive | Inactive | Inactive | Inactive | Inactive | Inactive | Inactive |  |  |  |  |  |  | 
3 | 1-NA-PP1 [Compound 1-NA-PP1] | Inactive | Inactive | Inactive |  |  | Inactive | Inactive | Inactive |  |  |  |  |  |  | EC50 (CMK; [6]): 2.2 µM; average effective concentration, M07e (M07e; [7]): Inactive
4 | CN(N=O)C(=O)N[C@H]1C(O)O[C@H](CO)[C@@H](O)[C@@H]1O (mixture of isomers) [STREPTOZOSIN] | Inactive | Inactive | Inactive | Inactive | Inactive | Inactive | Inactive | Inactive |  |  |  |  |  |  | 
5 | CC1CCCCCC(=O)c2c(O)cc(O)cc2CC(=O)O1 (single isomer, unassigned; (-)) [(-)-CURVULARIN] |  | Inactive | Inactive |  |  |  |  |  |  |  |  |  |  |  | EC50 (U937; secondary high-throughput screen, U937, read-out: average effective concentration, U937): 0.82 µM; EC50 (CMK; [6]): 1.5 µM; average effective concentration, M07e (M07e; [7]): Inactive; EC50 (CHRF288-11; secondary high-throughput screen, CHRF288-11, read-out: average effective concentration, CHRF288-11): 4.7 µM; EC50 (CMS; secondary high-throughput screen, CMS, read-out: average effective concentration, CMS): 0.32 µM
6 | O=C(O)c1ccnc(C(=O)O)c1 [2,4-PDAC] | Inactive | Inactive | Inactive | Inactive | Inactive | Inactive | Inactive | Inactive |  |  |  |  |  |  | 
7 | CN(C)C/C=C/C(=O)Nc1cc2c(Nc3ccc(F)c(Cl)c3)ncnc2cc1O[C@H]1CCOC1 [AFATINIB] |  |  |  |  |  |  |  |  | 6.2 | 7 | 5.6 | 5.4 | > 10 | 6.9 | EC50 (CMK; [12]): 3.6 µM; EC50 (CMS; [15]): 8.6 µM
8 | COCCCn1c(N)c(C(=O)NC2CCCC2)c2nc3ccccc3nc21 [CAY10591] | Inactive | Inactive | Inactive | Inactive | Inactive | Inactive | Inactive | Inactive |  |  |  |  |  |  | 
9 | O=C(NC(NC(=S)Nc1ccc(F)c([N+](=O)[O-])c1)C(Cl)(Cl)Cl)C(c1ccccc1)c1ccccc1 (stereo not drawn) [CGK 733] | Inactive | Inactive | Inactive | Inactive | Inactive | Inactive | Inactive | Inactive |  |  |  |  |  |  | 
10 | Cc1cc(C2CCCCC2)n(O)c(=O)c1 [CICLOPIROX] |  |  |  |  |  |  |  |  | 7.5 | 2.4 | 3.4 | 5.2 | 7.7 | 7.9 | EC50 (CMK; [12]): 4.7 µM; EC50 (CMS; [15]): 3.9 µM
11 | CC1(COc2ccc3c(c2)ncn3-c2ccc3cccc(N4CCC(N)CC4)c3n2)COC1 [CRENOLANIB] |  |  |  |  |  |  |  |  | 5 | 3.6 | 0.1 | 0.072 | > 10 | 0.77 | EC50 (CMK; [16]): 6.6 µM; EC50 (CMS; [17]): 8.2 µM
12 | C[C@@H](Oc1cc(-c2cnn(C3CCNCC3)c2)cnc1N)c1c(Cl)ccc(F)c1Cl [CRIZOTINIB] |  |  |  |  |  |  |  |  | > 10 | 4.8 | 3.9 | 3.9 | > 10 | 7.8 | EC50 (CMK; [12]): 4.2 µM; EC50 (CMS; [15]): 8.3 µM
13 | CCCCCCCCCCCCCCCc1cccc(OCC)c1C(=O)Nc1ccc(Cl)c(C(F)(F)F)c1 [CTPB] | Inactive |  | Inactive | Inactive | Inactive | Inactive | Inactive | Inactive |  |  |  |  |  |  | EC50 (MOLM-13; secondary high-throughput screen, read-out: average effective concentration, MOLM-13): 0.9 µM
14 | N#CC(=C(/N)Sc1ccccc1N)/C(C#N)=C(/N)Sc1ccccc1N [Compound U0126] | Inactive | Inactive | Inactive | Inactive | Inactive | Inactive | Inactive | Inactive |  |  |  |  |  |  | 
15 | C[C@H]1[C@@H](O)O[C@@H]2O[C@@]3(C)CC[C@H]4[C@H](C)CC[C@@H]1[C@@]24OO3 [DIHYDROARTEMISININ] |  |  |  |  |  |  |  |  | 2.3 | 9 | 8.3 | 2.8 | > 10 | 9.5 | EC50 (CMK; [16]): > 10 µM; EC50 (CMS; [17]): > 10 µM
16 | Cc1c2oc3c(C)ccc(C(=O)N[C@@H]4C(=O)N[C@H](C(C)C)C(=O)N5CCC[C@H]5C(=O)N(C)CC(=O)N(C)[C@@H](C(C)C)C(=O)O[C@@H]4C)c3nc-2c(C(=O)N[C@@H]2C(=O)N[C@H](C(C)C)C(=O)N3CCC[C@H]3C(=O)N(C)CC(=O)N(C)[C@@H](C(C)C)C(=O)O[C@@H]2C)c(N)c1=O [Dactinomycin, reference compound] (I: T[dV]P[Sar][NMeV] / II: T[dV]P[Sar][NMeV]; ester I:1-I:C, II:1-II:C; linker I:N-II:N via Actinocin(9to1)) |  |  |  |  |  |  |  |  |  |  | 0.029 | 0.043 |  |  | EC50 (U937; Homo sapiens, U-937, secondary HTS, 72 h, average of triplicate, read-out: EC50 U937): 0.001 µM; EC50 (ML2; Homo sapiens, secondary HTS, 72 h, average of triplicate, read-out: EC50 ML2): 0.001 µM; EC50 (MOLM-13; Homo sapiens, secondary HTS, 72 h, average of triplicate, read-out: EC50 MOLM-13): 0.03 µM; EC50 (MV4-11; secondary HTS, 72 h, average of triplicate, read-out: EC50 MV4-11): 0.04 µM; EC50 (CMK; Homo sapiens, secondary HTS, 72 h, average of triplicate, read-out: EC50 CMK): 0.001 µM; EC50 (M07e; secondary HTS, 72 h, average of triplicate, read-out: EC50 M07e): 0.001 µM; EC50 (CHRF288-11; Homo sapiens, HTS, 72 h, secondary HTS, 72 h, average of triplicate, read-out: EC50 CHRF288-11): 0.001 µM; EC50 (CMS; [15]): 0.036 µM; EC50 (CMS; Homo sapiens, secondary HTS, 72 h, average of triplicate, read-out: EC50 CMS): 0.04 µM
17 | C#Cc1cccc(Nc2ncnc3cc(OCCOC)c(OCCOC)cc23)c1 [ERLOTINIB] | Inactive |  |  | Inactive | Inactive | Inactive | Inactive | Inactive |  |  | > 10 | > 10 |  |  | 
18 | Cc1cnc(Nc2ccc(OCCN3CCCC3)cc2)nc1Nc1cccc(S(=O)(=O)NC(C)(C)C)c1 [FEDRATINIB] |  |  |  |  |  |  |  |  | 2.9 | 2.9 | 0.051 | 0.082 | 2 | 0.76 | EC50 (CMK; [16]): 0.24 µM; EC50 (CMS; [17]): 0.7 µM
19 | OCCN1CCN(CCCN2c3ccccc3Sc3ccc(C(F)(F)F)cc32)CC1 [FLUFENAZINE] | Inactive | Inactive | Inactive | Inactive | Inactive | Inactive | Inactive |  |  |  |  |  |  |  | 

From PMC6522510 (Nature Communications, 2019)
